The text below walks through data of ChEMBL document CHEMBL5360604, “Novel Dihydroorotate Dehydrogenase Inhibitors for Treating Acute Myelogenous Leukemia” (ACS Med Chem Lett, 2023).

The assay deals with MOLM-13. Briefly: Antiproliferative activity against human MOLM-13 cells assessed as reduction in cell viability incubated for 72 hrs by CellTiter-Glo assay. Format: functional, cell-based. Particulars: MOLM-13, 72 h. Background: Cellular ATP, detected with luciferase, serves as a proxy for viable cell number.
What is called IC50 is the concentration that inhibits the measured activity by half. In the case of `Cc1cn(-c2cc(O[C@@H](C)C(F)(F)F)c(C(=O)Nc3c(F)cccc3Cl)cc2F)nc1C(C)(C)O`, the IC50 amounted to 0.07 nM.

For the compound `Cc1cn(-c2cc(O[C@@H](C)C(F)(F)F)c(C(=O)Nc3c(F)cccc3Cl)cc2F)nc1[C@@H](C)O`, the 50% inhibitory concentration (IC50) came to 0.08 nM.

Take `Cc1cn(-c2cc(O[C@@H](C)C(F)(F)F)c(C(=O)Nc3c(C)n[nH]c3Cl)cc2F)nc1[C@@H](C)O`: the IC50 was 0.26 nM.

In the case of `Cc1cn(-c2cc(O[C@@H](C)C(F)(F)F)c(C(=O)Nc3c(C)n[nH]c3Cl)cc2F)nc1C(C)(C)O`, the IC50 is 0.09 nM.

Turning to `Cc1cn(-c2cc(O[C@@H](C)C(F)(F)F)c(C(=O)Nc3c(F)cccc3Cl)cc2F)nc1[C@H](C)O`, the IC50 was found to be 0.03 nM.

Regarding `Cc1cn(-c2cc(O[C@@H](C)C(F)(F)F)c(C(=O)Nc3c(C)n[nH]c3Cl)cc2F)nc1[C@H](C)O`, the IC50 was found to be 0.21 nM.
